Source: patent publication US20120040389A1 (Institut National de la Sante et de la Recherche Medicale …, priority 2003, published 2012)

Key:
[1] = system: Bax protein; test: Bax activation: retention of GFP-Bax fluorescence after digitonin permeabilization, flow cytometry; assay type: cell-based, human; settings: clone 10; coupled test FL1 (GFP) / FL3 (DNA); FIG. 11
Experimental: (§1) FIG. 11A-E represents the coupled measurement of Bax activation and the cell cycle. The clone 10 cells stably expressing the GFP-Bax fusion protein are treated with various drugs acting as pro-apoptotic agents and/or cytostatic agents. The measurement of Bax activation is carried out as described previously by evaluation of the retention of fluorescence after permeabilization with digitonin. In the permeabilization buffer, propidium iodide (0.4-0.8 mg/ml) was added and the cells were incubated for 30 minutes at 4° C. The distribution of the cells in the various phases of the cell cycle is read on the basis of their intensity of fluorescence in the red (PI).
The model implemented uses a clone designated “clone 10”.
The test is then based on the observation, under the fluorescence microscope or by flow cytometry, of the cells in which Bax is not activated and thus is distributed uniformly in the cytosol and of the cells in which Bax has been activated following an induction of apoptosis. In the latter case, the fluorescent signal is aggregated around the mitochondria and the Bax protein is thus considered as “bound”.
The cells are then resuspended in an intracellular saline solution in the presence of 50 μM of digitonin and then analyzed by flow cytometry and the fluorescence of the GFP is measured in channel FL1.

[2] = system: clone 10 cells; test: Cell cycle distribution by propidium iodide, coupled with the Bax activation test; assay type: cell-based, human; settings: propidium iodide 0.4-0.8 mg/ml, 30 minutes at 4° C., FIG. 11
Experimental: as §1, with “(PI). […] Moreover, it makes it possible to evaluate if Bax activation takes place in a preferential phase of the cell cycle.” for “(PI).”
The measurement of the cell cycle can be carried out in a traditional way by adding to the permeabilized cell suspension a sufficient concentration of propidium iodide (0.4-0.8 mg/ml). The cells are incubated for 30 minutes to allow time for PI to become intercalated in the genomic DNA, and then analyzed using flow cytometry by simultaneously measuring “green” fluorescence (FL1=the recombinant biosensor signal based on GFP or another fluorescent protein emitting in the green range) and “red” fluorescence (FL3=the intensity of PI corresponding to the chromatin content of each cell, which enables the cell cycle to be read).

[3] = system: caspase 3; test: Caspase 3 activation in a xenografted clone 23 tumor in nude mice, confocal microscopy; assay type: in vivo; settings: mouse with xenografted clone 23 tumor; 40 mg/kg/day for 4 days; FIG. 12c
From the text: FIG. 12 represents the xenograft of lines expressing a fluorescent biosensor. a) Confocal microscopy image (10×) of a section of a solid tumor generated by a subcutaneous xenograft of clone 10 cells (stably expressing GFP-Bax) in nude mice. Marking of nuclei (Hoechst) and cells with activated Bax (GFP-Bax). On the right, the detail of a cell with GFP-Bax relocalized to the mitochondria (GFP-Bax) and corresponding nuclear marking (Hoechst). b) Confocal microscopy image (10×) of a section of a solid tumor generated by a subcutaneous xenograft of clone 23 cells (stably expressing the protein copGFP-DEVD-cb5TMD-RR) in nude mice. Marking of nuclei (Hoechst) and distribution of the biosensor (caspase 3 probe).
These lines (designated clone 10 and clone 23, respectively), injected subcutaneously in “nude” mice form solid fluorescent tumors after a few days.

[4] = system: caspase 3; test: Cleavage and redistribution of caspase 3 probes, confocal and fluorescence microscopy; assay type: cell-based, human
Experimental: The quantification of cleavage and of the diffusion of the fluorescent signal in the cytosol is carried out by measuring the increase in the respectively green and red fluorescent signal in a region of the nucleus.
The quantification of the cleavage and of the diffusion of the fluorescent signal respectively from the nucleus to the cytosol for the protein H2B-DEVD-GFP and from the cytosol to the nucleus for the protein HcRed-DEVT-cb5 is carried out by measuring the increase in the fluorescent signal, respectively green in a cytosolic region of the cell and red in a region of the nucleus. e) Evaluation by flow cytometry of the functionality of the probe by quantification of the percentage of retention of fluorescence after permeabilization in a population of HeLa cells transfected transiently with the protein H2B-DEVD-GFP and its non-cleavable control.
The cells are cultivated on glass slides and transfected with the vector described previously; they are then mounted in a saline medium in an incubation chamber and observed under the fluorescence microscope. Before or during the observation, they are treated with the pro-apoptotic agent.

[5] = system: caspase 2; test: Distribution of nuclear-anchored caspase 2 probe in HeLa cells; assay type: cell-based, human; settings: transiently transfected, 3 hours, untreated cells show nuclear distribution, FIG. 10e
From the text: Fusion proteins GFP-cb5TMRR and GFP-SNAP(80-136) were constructed which carry, in the linker connecting the fluorescent protein and the anchoring segment, the caspase 8 consensus sensing site (IETD) which is principal “initiating” pro-apoptotic caspase. In the same manner, a fusion protein GFP-H2B was constructed which contains, in the sequence linker, the caspase 2 consensus sensing sequence (VDVAD), which is a protease with nuclear localization. The sensing components thus used have as sequences SEQ ID No. 6 and 14 (for caspase 8), and SEQ ID No. 12 (for caspase 2). These proteins are cleavable and the quantification of the proteolytic activity can be carried out via cytometry as shown for caspase 3 (FIG. 10).

Row | Structure (SMILES) | Bax activation in relation to the phase of the cell cycle [1] | Effect on the cell cycle (distribution in phases G1, S, G2/M) [2] | further results
1 | COc1cccc2c1C(=O)c1c(O)c3c(c(O)c1C2=O)C[C@@](O)(C(C)=O)C[C@@H]3O[C@H]1C[C@H](N)[C@H](O)[C@H](C)O1 [daunorubicin] | Bax activation in phase S | accumulation in phase G2 | –
2 | CC[C@@]1(O)C(=O)OCc2c1cc1n(c2=O)Cc2cc3ccccc3nc2-1 [camptothecin] | Bax activation preferentially in phase Gl | blockage in phase S | –
3 | COc1cc([C@@H]2c3cc4c(cc3[C@@H](O[C@@H]3O[C@@H]5CO[C@@H](C)O[C@H]5[C@H](O)[C@H]3O)[C@H]3COC(=O)[C@H]23)OCO4)cc(OC)c1O [etoposide] | – | – | Caspase 3 activation in tumor cells (cytosolic distribution of fluorescence) [3]: appearance of cells having activated caspase 3
4 | CN[C@H]1CCc2cc(OC)c(OC)c(OC)c2-c2ccc(OC)c(=O)cc21 [colcemid] | – | accumulation in phase G2 | –
5 | CN[C@@H]1C[C@H]2O[C@@](C)([C@@H]1OC)n1c3ccccc3c3c4c(c5c6ccccc6n2c5c31)C(=O)NC4 [staurosporine] | induction of Bax activation in any phase of the cycle | no effect on the cycle | Cleavage of probes GFP-DEVD-ANT and HcRed-DEVD-Cb5RR ([4]; human HeLa cells, transiently co-transfected, confocal microscopy, FIG. 8e-f): Release of the fluorescent protein in the cytosol following its cleavage; Distribution of fluorescent protein H2B-DEVD-GFP ([4]; human HeLa cells, transiently transfected, untreated cells show nuclear distribution, FIG. 9c): cytosolic distribution; Cleavage of probe GFP-DEVD-SNAP(80-136) ([4]; human SH-SY5Y neuroblastoma cells, transiently transfected, confocal microscopy, FIG. 7c): Release of the fluorescent protein in the cytosol following its cleavage; Distribution of fluorescent protein GFP-IETD-H2B [5]: cytosolic distribution
